Measured values from patent US9611278B2 (Merck Sharp & Dohme Corp., priority 2013, dated 2017).

Tests used:
[1] = tested on: Spontaneously hypertensive rats (SHR); assay: Acute Efficacy in Spontaneously Hypertensive Rats (SHR); format: in vivo, rat; settings: single oral dose
Source text: Spontaneously hypertensive rats (SHR, male, Charles River) were implanted with DSI TA11PA-C40 telemetry device (Data Sciences, Inc., St. Paul, Minn.) under isoflurane or ketamine/metomidine anesthesia. The telemetry unit catheter was inserted into the descending aorta via the femoral artery and the telemetry device was implanted subcutaneously in the left flank area. Animals were allowed to recover from surgery for 14 days before the start of any studies. Blood pressure, heart rate, and activity signals from conscious, freely moving rats were recorded continuously for 30 seconds every 10 min. On the day prior to administration of compound, a single oral dose of vehicle (10% transcutol/20% Cremophor/70% water) was administered to all animals to establish baseline control data. The blood pressure lowering efficacy of compound (PO) or vehicle was evaluated following a single oral gavage. Data were collected as hourly averages, and changes in blood pressure were calculated by subtracting control baseline data on an hourly basis. Animals were maintained on normal diet with a 12 hour light-dark cycle.
Maximum peak decreases of systolic blood pressure (SBP) in SHR at a particular P.O. dose (mpk milligrams per kilogram) for the following representative compounds are provided in Table 9. Category A=SBP in SHRs <15 mmHg; Category B=SBP in SHRs 15-25 mmHg; Category C=SBP in SHRs >25 mmHg

[2] = biological target: T1, sGC α1/β1 heterodimer stably expressed in CHO-K1 cells (CHO-K1/sGC) (Homo sapiens, UniProt Q02108+Q02153); assay: Cell-based sGC Functional Assay (CASA Assay); settings: for Emax: CHO-K1, activation as percentage of maximum cGMP production of Compound A (set to 100%), read-out: % Act.; for EC50: inflection point of cGMP generation in CHO-K1/sGC cells, 4P fit, 1 hr at 37° C., read-out: IP
T1 construct: expressed in transfected cells
T1 sequence (Q02108 1-690): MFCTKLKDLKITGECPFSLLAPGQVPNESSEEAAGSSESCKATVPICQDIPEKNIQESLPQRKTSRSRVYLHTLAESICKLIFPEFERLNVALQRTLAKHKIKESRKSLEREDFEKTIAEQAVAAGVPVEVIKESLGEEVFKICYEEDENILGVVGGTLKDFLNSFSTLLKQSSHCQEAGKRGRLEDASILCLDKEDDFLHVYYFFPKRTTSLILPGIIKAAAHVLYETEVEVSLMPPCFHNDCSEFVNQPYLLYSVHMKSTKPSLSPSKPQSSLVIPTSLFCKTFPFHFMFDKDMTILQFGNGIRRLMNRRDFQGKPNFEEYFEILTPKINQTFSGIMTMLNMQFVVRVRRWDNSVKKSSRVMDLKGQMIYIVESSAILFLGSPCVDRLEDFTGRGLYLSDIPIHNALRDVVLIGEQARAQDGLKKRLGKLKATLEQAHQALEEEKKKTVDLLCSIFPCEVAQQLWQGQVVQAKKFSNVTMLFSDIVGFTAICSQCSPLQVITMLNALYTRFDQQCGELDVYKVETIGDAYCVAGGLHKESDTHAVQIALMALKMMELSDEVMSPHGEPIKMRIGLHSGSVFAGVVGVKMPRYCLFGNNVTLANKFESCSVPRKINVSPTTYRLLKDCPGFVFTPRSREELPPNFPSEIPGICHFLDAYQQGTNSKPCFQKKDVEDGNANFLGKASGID
T1 sequence (Q02153 1-619): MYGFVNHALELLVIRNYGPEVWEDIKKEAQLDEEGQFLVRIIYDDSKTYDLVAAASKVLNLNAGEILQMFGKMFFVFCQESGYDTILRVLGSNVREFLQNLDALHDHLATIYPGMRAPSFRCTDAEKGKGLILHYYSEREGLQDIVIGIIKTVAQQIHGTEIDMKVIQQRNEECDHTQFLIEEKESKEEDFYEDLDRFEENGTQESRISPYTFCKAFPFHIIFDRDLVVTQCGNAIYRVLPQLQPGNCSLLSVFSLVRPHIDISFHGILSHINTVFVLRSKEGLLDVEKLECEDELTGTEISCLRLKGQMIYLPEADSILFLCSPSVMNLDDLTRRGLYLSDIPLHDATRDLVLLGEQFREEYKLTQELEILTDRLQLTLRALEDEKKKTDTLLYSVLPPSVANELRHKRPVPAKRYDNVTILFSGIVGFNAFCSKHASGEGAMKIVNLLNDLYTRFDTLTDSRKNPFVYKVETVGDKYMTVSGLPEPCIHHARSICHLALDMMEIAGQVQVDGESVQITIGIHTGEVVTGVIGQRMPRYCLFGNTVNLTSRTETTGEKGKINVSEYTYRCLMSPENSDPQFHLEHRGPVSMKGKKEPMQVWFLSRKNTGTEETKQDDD
How it was run: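 CHO-K1 cells stably expressing human sGC α1/β1 were incubated with compound for 1 h at 37 °C in buffer with 0.5 mM IBMX and 2.5% DMSO, with or without 1 μM DETA-NO. Intracellular cGMP was read by HTRF and expressed as percentage of maximal activation by reference activator Compound A. Values came from a 4-parameter fit.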

SMILES	Emax [2] [%]	EC50 [2] [nM]	Category: maximum peak decrease of systolic blood pressure (SBP) in SHR ([1]; P.O. 1 mpk)	Category: maximum peak decrease of systolic blood pressure (SBP) in SHR ([1]; P.O. 0.3 mpk)
CC(C)n1cc(C2(C)C(=O)Nc3nc(-c4nc(CCC(F)(F)C(F)(F)F)nc5c4cnn5C)nc(N)c32)nn1 (single isomer, unassigned) [Example 56, 4-Amino-5-(1-isopropyl-1H-1,2,3-triazol-4-yl)-5-methyl-2-(1-methyl-6-(3,3,4,4,4-pentafluorobutyl)-1H-pyrazolo[3,4-d]pyrimidin-4-yl)-5,7-dihydro-6H-pyrrolo[2,3-d]pyrimidin-6-one]	126	1020	C (Category C=SBP in SHRs >25 mmHg)	
CCn1cc(C2(CC)C(=O)Nc3nc(-c4nc(CCC(F)(F)C(F)(F)F)nc5c4cnn5C)nc(N)c32)nn1 (single isomer, unassigned) [Example 66, 4-Amino-5-ethyl-5-(1-ethyl-1H-1,2,3-triazol-4-yl)-2-(1-methyl-6-(3,3,4,4,4-pentafluorobutyl)-1H-pyrazolo[3,4-d]pyrimidin-4-yl)-5,7-dihydro-6H-pyrrolo[2,3-d]pyrimidin-6-one]	108	327	B (Category B=SBP in SHRs 15-25 mmHg)	
CCn1cc(C2(C)C(=O)Nc3nc(-c4nc(CCC(F)(F)C(F)(F)F)nc5c4cnn5C)nc(N)c32)nn1 (single isomer, unassigned) [Example 69, 4-Amino-5-(1-ethyl-1H-1,2,3-triazol-4-yl)-5-methyl-2-(1-methyl-6-(3,3,4,4,4-pentafluorobutyl)-1H-pyrazolo[3,4-d]pyrimidin-4-yl)-5,7-dihydro-6H-pyrrolo[2,3-d]pyrimidin-6-one]	105	259	C (Category C=SBP in SHRs >25 mmHg)	
Cn1ncc2c(-c3nc(N)c4c(n3)NC(=O)C4(C)n3cnnn3)nc(CCC(F)(F)C(F)(F)F)nc21 (single isomer, unassigned) [Example 84, 4-Amino-5-methyl-2-(1-methyl-6-(3,3,4,4,4-pentafluorobutyl)-1H-pyrazolo[3,4-d]pyrimidin-4-yl)-5-(1H-tetrazol-1-yl)-5,7-dihydro-6H-pyrrolo[2,3-d]pyrimidin-6-one]	111	365	A (Category A=SBP in SHRs <15 mmHg)	
[2H]C([2H])([2H])n1ncc2c(-c3nc(N)c4c(n3)NC(=O)C4(c3nnc(C)o3)C3CC3)nc(CCC(F)(F)C(F)(F)F)nc21 (centres unmarked) [Example 40, 4-Amino-5-cyclopropyl-5-(5-methyl-1,3,4-oxadiazol-2-yl)-2-(1-(methyl-d3)-6-(3,3,4,4,4-pentafluorobutyl)-1H-pyrazolo[3,4-d]pyrimidin-4-yl)-5,7-dihydro-6H-pyrrolo[2,3-d]pyrimidin-6-one]			C (Category C=SBP in SHRs >25 mmHg)	
Cc1nnc(C2(C)C(=O)Nc3nc(-c4nc(CCC(F)(F)C(F)(F)F)nc5c4ccn5C)nc(N)c32)o1 (centres unmarked) [Example 87, 4-Amino-5,7′-dimethyl-5-(5-methyl-1,3,4-oxadiazol-2-yl)-2′-(3,3,4,4,4-pentafluorobutyl)-5,7-dihydro-6H,7′H-[2,4′-bipyrrolo[2,3-d]pyrimidin]-6-one]	86	378		
Cn1ccc2c(-c3nc(N)c4c(n3)NC(=O)C4(c3nnc(C4CC4)o3)C3CC3)nc(CCC(F)(F)C(F)(F)F)nc21 (centres unmarked) [Example 88, 4-Amino-5-cyclopropyl-5-(5-cyclopropyl-1,3,4-oxadiazol-2-yl)-7′-methyl-2′-(3,3,4,4,4-pentafluorobutyl)-5,7-dihydro-6H,7′H-[2,4′-bipyrrolo[2,3-d]pyrimidin]-6-one]	109	715		

Continued, in another order:

Emax [2] [%]	EC50 [2] [nM]	SMILES	Category: maximum peak decrease of systolic blood pressure (SBP) in SHR ([1]; P.O. 1 mpk)	Category: maximum peak decrease of systolic blood pressure (SBP) in SHR ([1]; P.O. 0.3 mpk)
93	229	[2H]C([2H])([2H])n1ncc2c(-c3nc(N)c4c(n3)NC(=O)C4(c3cn(C)nn3)C3CC3)nc(CCC(F)(F)C(F)(F)F)nc21 (single isomer, unassigned) [Example 54, 4-Amino-5-cyclopropyl-5-(1-methyl-1H-1,2,3-triazol-4-yl)-2-(1-(methyl-d3)-6-(3,3,4,4,4-pentafluorobutyl)-1H-pyrazolo[3,4-d]pyrimidin-4-yl)-5,7-dihydro-6H-pyrrolo[2,3-d]pyrimidin-6-one]	B (Category B=SBP in SHRs 15-25 mmHg)	
118	251	Cn1cc(C2(C3CC3)C(=O)Nc3nc(-c4nc(CCC(F)(F)C(F)(F)F)nc5c4cnn5C)nc(N)c32)nn1 (single isomer, unassigned) [Example 55, 4-Amino-5-cyclopropyl-5-(1-methyl-1H-1,2,3-triazol-4-yl)-2-(1-methyl-6-(3,3,4,4,4-pentafluorobutyl)-1H-pyrazolo[3,4-d]pyrimidin-4-yl)-5,7-dihydro-6H-pyrrolo[2,3-d]pyrimidin-6-one]	B (Category B=SBP in SHRs 15-25 mmHg)	
123	55	Cn1ncc2c(-c3nc(N)c4c(n3)NC(=O)C4(C)c3ccc(F)cn3)nc(CCC(F)(F)C(F)(F)F)nc21 (centres unmarked) [Example 1, 4-Amino-5-(5-fluoropyridin-2-yl)-5-methyl-2-(1-methyl-6-(3,3,4,4,4-pentafluorobutyl)-1H-pyrazolo[3,4-d]pyrimidin-4-yl)-5H-pyrrolo[2,3-d]pyrimidin-6(7H)-one]		C (Category C=SBP in SHRs >25 mmHg)
117	104	Cn1ncc2c(-c3nc(N)c4c(n3)NC(=O)C4(C)c3ccc(F)cn3)nc(CC3CC(F)(F)C3)nc21 (centres unmarked) [Example 3, 4-Amino-2-(6-((3,3-difluorocyclobutyl)methyl)-1-methyl-1H-pyrazolo[3,4-d]pyrimidin-4-yl)-5-(5-fluoropyridin-2-yl)-5-methyl-5,7-dihydro-6H-pyrrolo[2,3-d]pyrimidin-6-one]		C (Category C=SBP in SHRs >25 mmHg)
115	54	Cn1ncc2c(-c3nc(N)c4c(n3)NC(=O)C4(C)c3ccc(F)cn3)nc(CCCC(F)(F)F)nc21 (centres unmarked) [Example 4, 4-Amino-5-(5-fluoropyridin-2-yl)-5-methyl-2-(1-methyl-6-(4,4,4-trifluorobutyl)-1H-pyrazolo[3,4-d]pyrimidin-4-yl)-5H-pyrrolo[2,3-d]pyrimidin-6(7H)-one]		B (Category B=SBP in SHRs 15-25 mmHg)
157	225	[2H]C([2H])([2H])n1ncc2c(-c3nc(N)c4c(n3)NC(=O)C4(C)c3noc(C)n3)nc(CCC(F)(F)C(F)(F)F)nc21 (centres unmarked) [Example 19, 4-Amino-5-methyl-5-(5-methyl-1,2,4-oxadiazol-3-yl)-2-(1-(methyl-d3)-6-(3,3,4,4,4-pentafluorobutyl)-1H-pyrazolo[3,4-d]pyrimidin-4-yl)-5,7-dihydro-6H-pyrrolo[2,3-d]pyrimidin-6-one]	C (Category C=SBP in SHRs >25 mmHg)	
